According to ChEMBL document CHEMBL5356950, “Past, present and future of xanthine oxidase inhibitors: design strategies, structural and pharmacological insights, patents and clinical trials” (RSC Med Chem, 2023):

Experiments:
[1] = target: T1, Xanthine dehydrogenase/oxidase (Homo sapiens, UniProt P47989); experiment: Inhibition of XO (unknown origin) relative to control
[2] = target: T2, Xanthine dehydrogenase/oxidase (Bos taurus, UniProt P80457); experiment: Inhibition of Bovine milk XO using xanthine as substrate at 100 uM measured after 10 mins by microplate reader analysis relative to control; conditions: cattle
[3] = target: T2, Xanthine dehydrogenase/oxidase; experiment: Inhibition of Bovine XO using xanthine as substrate assessed as decrease in uric acid level by spectrophotometric analysis
[4] = target: T2, Xanthine dehydrogenase/oxidase; experiment: Inhibition of Bovine milk XO using xanthine as substrate assessed as decrease in uric acid level measured after 5 mins by spectrophotometric analysis
[5] = target: T2, Xanthine dehydrogenase/oxidase; experiment: Inhibition of Bovine milk XO
[6] = Toxicity in Wistar rat assessed as decrease in serum uric acid level at 1 mg/kg, po measured after 6 hrs; format: organism-based; parameters: scale not given: the % may be the effect or the level left; conditions: in vivo
[7] = target: T2, Xanthine dehydrogenase/oxidase; experiment: Inhibition of Bovine milk XO measured after 30 mins
[8] = target: T3, Solute carrier family 22 member 12 (Homo sapiens, UniProt Q96S37); experiment: Inhibition of human URAT1
T3 sequence (Q96S37 whole entry): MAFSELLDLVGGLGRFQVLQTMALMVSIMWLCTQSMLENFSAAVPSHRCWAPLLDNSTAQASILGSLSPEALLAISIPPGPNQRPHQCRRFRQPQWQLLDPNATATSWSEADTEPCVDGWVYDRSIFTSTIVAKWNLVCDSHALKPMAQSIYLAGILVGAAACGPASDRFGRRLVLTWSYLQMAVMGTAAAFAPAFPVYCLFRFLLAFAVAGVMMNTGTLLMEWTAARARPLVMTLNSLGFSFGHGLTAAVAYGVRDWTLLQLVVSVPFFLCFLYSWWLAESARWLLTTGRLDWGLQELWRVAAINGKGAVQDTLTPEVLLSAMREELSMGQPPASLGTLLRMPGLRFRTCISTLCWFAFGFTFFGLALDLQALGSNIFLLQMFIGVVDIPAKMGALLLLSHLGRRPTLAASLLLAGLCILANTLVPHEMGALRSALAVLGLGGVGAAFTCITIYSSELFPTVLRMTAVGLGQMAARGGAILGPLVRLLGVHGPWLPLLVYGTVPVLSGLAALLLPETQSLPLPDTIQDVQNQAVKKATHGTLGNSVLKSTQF

[9] = target: T2, Xanthine dehydrogenase/oxidase; experiment: Inhibition of Bovine milk XO using xanthine as substrate measured after 10 mins by spectrophotometric analysis
[10] = target: T2, Xanthine dehydrogenase/oxidase; experiment: Inhibition of Bovine milk XO using xanthine as substrate measured after 10 mins by spectrophotometric analysis relative to control; conditions: cattle
[11] = target: T2, Xanthine dehydrogenase/oxidase; experiment: Inhibition of Bovine XO using xanthine as substrate assessed as decrease in uric acid level measured after 10 mins by spectrophotometric analysis
[12] = target: T3, Solute carrier family 22 member 12; experiment: Inhibition of URAT1 (unknown origin) assessed as decrease in uric acid level measured after 15 mins
[13] = target: T3, Solute carrier family 22 member 12; experiment: Inhibition of URAT1 (unknown origin)
[14] = target: T1, Xanthine dehydrogenase/oxidase; experiment: Inhibition of XO (unknown origin) using xanthine as substrate pre incubated for 5 mins followed by substrate addition measured after 1 mins by spectrophotometric analysis
[15] = target: T2, Xanthine dehydrogenase/oxidase; experiment: Inhibition of Bovine milk XO using xanthine as substrate assessed as decrease in uric acid level pre incubated for 15 mins followed by substrate addition measured after 30 mins by spectrophotometric analysis
[16] = target: T1, Xanthine dehydrogenase/oxidase; experiment: Inhibition of XO (unknown origin) using xanthine as substrate pre incubated for 15 mins followed by substrate addition measured after 30 mins by UV-VIS spectrophotometer analysis
[17] = target: T1, Xanthine dehydrogenase/oxidase; experiment: Inhibition of XO (unknown origin) using xanthine as substrate measured after 10 mins
[18] = target: T1, Xanthine dehydrogenase/oxidase; experiment: Inhibition of XO (unknown origin) using xanthine as substrate pre incubated for 10 mins followed by substrate addition measured after 15 mins
[19] = target: T2, Xanthine dehydrogenase/oxidase; experiment: Inhibition of Bovine milk XO using xanthine as substrate pre incubated for 5 mins followed by substrate addition measured after 30 mins by spectrophotometric analysis
[20] = target: T2, Xanthine dehydrogenase/oxidase; experiment: Inhibition of Bovine milk XO using xanthine as substrate assessed as decrease in uric acid level measured after 15 mins by spectrophotometric analysis
[21] = Toxicity in rat assessed as hypouricemic activity at 1 mg/kg; format: organism-based; conditions: in vivo
[22] = Toxicity in rat assessed as hypouricemic activity at 3 mg/kg measured after 24 hrs; format: organism-based; conditions: in vivo
[23] = target: T1, Xanthine dehydrogenase/oxidase; experiment: Inhibition of XO (unknown origin) using xanthine as substrate measured after 2 to 3 mins by UV-spectrophotometric analysis
[24] = target: T2, Xanthine dehydrogenase/oxidase; experiment: Inhibition of Bovine XO using xanthine as substrate assessed as decrease in uric acid level preincubated for 15 mins followed by substrate addition measured after 2 mins by spectrophotometric analysis
[25] = target: T4, Xanthine dehydrogenase/oxidase (Mus musculus, UniProt Q00519); experiment: Inhibition of mouse serum XO assessed as decrease in uric acid level measured after 2 hrs relative to control
[26] = target: T4, Xanthine dehydrogenase/oxidase; experiment: Inhibition of mouse serum XO assessed as decrease in uric acid level measured after 6 hrs relative to control
[27] = target: T1, Xanthine dehydrogenase/oxidase; experiment: Inhibition of XO (unknown origin) using xanthine as substrate assessed as decrease in uric acid level measured after 3 mins by spectrophotometric analysis

T2 sequence (P80457 whole entry): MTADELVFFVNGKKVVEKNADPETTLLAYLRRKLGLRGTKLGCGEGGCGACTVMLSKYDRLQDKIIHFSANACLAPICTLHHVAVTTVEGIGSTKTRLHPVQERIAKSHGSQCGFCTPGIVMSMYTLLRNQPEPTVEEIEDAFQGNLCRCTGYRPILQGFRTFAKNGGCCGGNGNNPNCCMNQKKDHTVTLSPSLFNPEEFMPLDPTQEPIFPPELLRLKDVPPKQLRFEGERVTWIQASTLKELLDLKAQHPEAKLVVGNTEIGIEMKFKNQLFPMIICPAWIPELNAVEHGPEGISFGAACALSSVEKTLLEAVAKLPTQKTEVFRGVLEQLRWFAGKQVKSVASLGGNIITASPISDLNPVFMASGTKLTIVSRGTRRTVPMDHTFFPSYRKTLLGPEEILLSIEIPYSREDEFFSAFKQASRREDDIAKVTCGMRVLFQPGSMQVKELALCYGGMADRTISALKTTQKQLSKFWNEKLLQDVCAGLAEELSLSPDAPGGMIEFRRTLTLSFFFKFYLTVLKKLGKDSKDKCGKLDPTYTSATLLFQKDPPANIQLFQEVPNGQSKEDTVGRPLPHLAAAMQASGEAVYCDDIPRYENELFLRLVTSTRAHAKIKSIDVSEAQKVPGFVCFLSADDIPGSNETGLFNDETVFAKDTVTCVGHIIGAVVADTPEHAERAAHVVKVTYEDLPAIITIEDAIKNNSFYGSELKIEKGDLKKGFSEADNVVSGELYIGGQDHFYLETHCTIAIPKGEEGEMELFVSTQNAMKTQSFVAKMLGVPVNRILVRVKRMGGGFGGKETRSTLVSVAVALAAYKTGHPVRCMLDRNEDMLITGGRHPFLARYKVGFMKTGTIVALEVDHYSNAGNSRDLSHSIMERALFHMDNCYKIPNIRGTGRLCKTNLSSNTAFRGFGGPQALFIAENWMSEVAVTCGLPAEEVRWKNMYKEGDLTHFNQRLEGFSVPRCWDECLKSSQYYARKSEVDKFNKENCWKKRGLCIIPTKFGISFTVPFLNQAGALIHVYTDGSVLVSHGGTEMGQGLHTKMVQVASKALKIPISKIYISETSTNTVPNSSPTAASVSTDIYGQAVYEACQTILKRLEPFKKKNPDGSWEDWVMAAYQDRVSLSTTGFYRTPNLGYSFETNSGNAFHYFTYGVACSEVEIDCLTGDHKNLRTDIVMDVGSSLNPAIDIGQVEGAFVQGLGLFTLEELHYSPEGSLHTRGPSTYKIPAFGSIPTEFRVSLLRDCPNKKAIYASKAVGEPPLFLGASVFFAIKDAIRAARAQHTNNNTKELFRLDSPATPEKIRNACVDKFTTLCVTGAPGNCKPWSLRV
T1 sequence (P47989 whole entry): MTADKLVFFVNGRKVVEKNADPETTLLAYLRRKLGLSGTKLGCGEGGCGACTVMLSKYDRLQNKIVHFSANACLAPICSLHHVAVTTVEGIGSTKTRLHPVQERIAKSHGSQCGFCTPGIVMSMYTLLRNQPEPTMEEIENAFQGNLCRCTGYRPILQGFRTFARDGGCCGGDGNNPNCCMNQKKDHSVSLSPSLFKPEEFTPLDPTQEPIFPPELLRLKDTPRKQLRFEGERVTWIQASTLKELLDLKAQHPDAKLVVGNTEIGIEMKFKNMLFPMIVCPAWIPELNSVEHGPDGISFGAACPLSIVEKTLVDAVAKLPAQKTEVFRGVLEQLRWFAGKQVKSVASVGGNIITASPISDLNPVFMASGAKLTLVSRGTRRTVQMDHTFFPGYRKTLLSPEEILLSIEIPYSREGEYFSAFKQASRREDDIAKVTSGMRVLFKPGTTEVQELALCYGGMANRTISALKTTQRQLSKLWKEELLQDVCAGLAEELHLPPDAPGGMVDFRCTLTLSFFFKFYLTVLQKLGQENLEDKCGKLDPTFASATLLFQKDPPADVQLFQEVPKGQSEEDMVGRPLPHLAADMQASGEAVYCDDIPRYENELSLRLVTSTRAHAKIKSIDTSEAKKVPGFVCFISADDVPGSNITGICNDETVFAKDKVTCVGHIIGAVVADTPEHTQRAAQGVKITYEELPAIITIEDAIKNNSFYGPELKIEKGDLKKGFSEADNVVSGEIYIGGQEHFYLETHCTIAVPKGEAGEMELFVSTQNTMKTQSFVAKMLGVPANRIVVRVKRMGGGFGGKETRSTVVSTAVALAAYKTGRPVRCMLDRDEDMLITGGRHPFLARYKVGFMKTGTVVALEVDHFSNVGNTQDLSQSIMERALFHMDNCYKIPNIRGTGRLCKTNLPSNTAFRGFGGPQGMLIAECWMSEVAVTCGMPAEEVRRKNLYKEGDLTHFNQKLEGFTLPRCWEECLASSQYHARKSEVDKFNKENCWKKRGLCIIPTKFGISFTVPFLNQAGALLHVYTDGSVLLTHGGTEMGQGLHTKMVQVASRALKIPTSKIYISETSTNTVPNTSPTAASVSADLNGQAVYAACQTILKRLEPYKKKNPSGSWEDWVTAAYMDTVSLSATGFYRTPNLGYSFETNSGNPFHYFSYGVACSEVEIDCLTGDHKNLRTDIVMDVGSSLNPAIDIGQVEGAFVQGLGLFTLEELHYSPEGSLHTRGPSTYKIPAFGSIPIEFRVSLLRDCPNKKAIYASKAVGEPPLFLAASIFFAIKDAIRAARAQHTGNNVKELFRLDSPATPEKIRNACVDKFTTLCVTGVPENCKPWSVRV
T4 sequence (Q00519 whole entry): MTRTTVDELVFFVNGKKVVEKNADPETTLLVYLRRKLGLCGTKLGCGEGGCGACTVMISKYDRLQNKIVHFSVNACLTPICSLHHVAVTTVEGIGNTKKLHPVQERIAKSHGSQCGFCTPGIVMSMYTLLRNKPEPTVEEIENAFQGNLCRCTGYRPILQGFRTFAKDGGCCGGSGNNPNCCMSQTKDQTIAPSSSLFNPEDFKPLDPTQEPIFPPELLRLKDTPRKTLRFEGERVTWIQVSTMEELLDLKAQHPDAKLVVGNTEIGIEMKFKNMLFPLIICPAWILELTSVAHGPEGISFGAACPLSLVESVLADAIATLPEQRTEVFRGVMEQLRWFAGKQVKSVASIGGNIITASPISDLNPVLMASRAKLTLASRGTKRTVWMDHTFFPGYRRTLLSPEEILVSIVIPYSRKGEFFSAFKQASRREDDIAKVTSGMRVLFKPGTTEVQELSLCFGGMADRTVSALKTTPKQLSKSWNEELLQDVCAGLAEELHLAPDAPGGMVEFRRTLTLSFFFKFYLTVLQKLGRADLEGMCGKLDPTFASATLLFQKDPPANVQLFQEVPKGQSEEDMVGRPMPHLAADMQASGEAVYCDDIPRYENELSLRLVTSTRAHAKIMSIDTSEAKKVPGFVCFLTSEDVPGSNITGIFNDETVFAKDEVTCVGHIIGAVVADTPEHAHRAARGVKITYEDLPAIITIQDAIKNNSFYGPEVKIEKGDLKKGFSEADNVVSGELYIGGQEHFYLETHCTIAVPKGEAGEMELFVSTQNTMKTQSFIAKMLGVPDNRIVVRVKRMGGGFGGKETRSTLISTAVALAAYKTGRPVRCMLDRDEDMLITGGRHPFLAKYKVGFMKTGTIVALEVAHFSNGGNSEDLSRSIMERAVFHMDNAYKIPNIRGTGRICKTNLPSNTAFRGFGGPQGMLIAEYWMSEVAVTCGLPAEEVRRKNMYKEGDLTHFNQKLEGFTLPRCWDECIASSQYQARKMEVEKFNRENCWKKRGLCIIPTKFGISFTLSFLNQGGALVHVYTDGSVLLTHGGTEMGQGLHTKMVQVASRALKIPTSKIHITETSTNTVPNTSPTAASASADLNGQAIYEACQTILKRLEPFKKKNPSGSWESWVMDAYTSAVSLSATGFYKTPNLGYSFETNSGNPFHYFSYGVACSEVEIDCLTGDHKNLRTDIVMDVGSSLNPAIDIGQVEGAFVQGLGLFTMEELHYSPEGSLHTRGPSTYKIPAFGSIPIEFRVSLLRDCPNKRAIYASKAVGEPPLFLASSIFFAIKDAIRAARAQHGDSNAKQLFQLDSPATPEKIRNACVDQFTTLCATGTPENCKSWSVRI

Clc1cc2nc(-c3ccncc3)[nH]c2cc1Cl
inhibition (INH) [1]: 56%

N#Cc1cn(-c2ccc(C(=O)O)c(O)c2)cc1-c1cccs1
inhibition at 100 µM [2]: > 90%

CCCCc1cn(-c2ccc(C(=O)O)c(O)c2)cc1C#N
inhibition at 100 µM [2]: > 90%

O=C(O)c1ccc2c(c1)C(=O)N(c1ccccc1)C2=O
IC50 [3]: 7.15 µM

O=c1oc2cc(O)cc(O)c2cc1-c1cccc(O)c1
IC50 [4]: 2.13 µM

OCc1ccc(O)c(O)c1
IC50 [5]: 3 µM

Cc1cc(-c2nc(-c3ccc(OCC(C)C)c([N+](=O)[O-])c3)n[nH]2)ccn1
Activity [6]: 66.5%

Cc1cc(-c2n[nH]c(-c3ccc(OCC(C)C)c(C#N)c3)n2)ccn1
Activity [6]: 67.5%

Cc1nc(-c2cc(I)c3c(c2)CCC(C)(C)O3)sc1C(=O)O
IC50 [7]: 0.00187 µM

CCC1(C)Cc2cc(-c3nc(C)c(C(=O)O)s3)cc(C#N)c2O1 (stereo unspecified)
IC50 [7]: 0.00135 µM

COC(=O)C(Sc1nnc(Br)n1-c1ccc(Br)c2ccccc12)C(=O)OC
IC50 [8]: 0.0197 µM

Cc1ccc2c(-c3ccc(C(=O)O)c(O)c3)cc(C#N)n2n1
IC50 [9]: 0.003 µM
inhibition (INH) [10]: 60%

COc1cc(OC)c(C(=O)/C=C/c2ccccc2F)c(O)c1C(=O)/C=C/c1ccccc1F
IC50 [11]: 0.728 µM

N#Cc1ccc(NS(=O)(=O)c2ccccc2OC(F)(F)F)cc1Cl
IC50 [12]: 0.006 µM

O=C(Nc1ccc(-c2nnn[nH]2)cc1)c1c(O)[nH]c(=S)[nH]c1=O
IC50 [13]: 0.39 µM

COc1ccc(-c2cc3cc([N+](=O)[O-])ccc3oc2=O)cc1
IC50 [14]: 8.4 µM

O=[N+]([O-])c1ccc(CSc2nnc(-c3cc(-c4ccccc4)nn3Cc3ccccc3)o2)cc1
IC50 [15]: 72.4 µM

O=Cc1ccc(C2Nc3ccccc3-c3cc(-c4ccccc4)nn32)c([N+](=O)[O-])c1 (stereo unspecified)
IC50 [16]: 11 µM

Cc1nc(-c2cc(C#N)c3c(c2)CCC(C)(C)O3)[se]c1C(=O)O
IC50 [7]: 0.00236 µM

Cc1nc(-c2cc(C#N)c3c(c2)CC2(CCCCC2)O3)sc1C(=O)O
IC50 [7]: 0.0014 µM

Cc1nc(-c2cc(C#N)c3c(c2)CCC(C)(C)O3)sc1C(=O)O
IC50 [7]: 0.00265 µM

Nn1c(S)nnc1-c1cc(-c2ccccc2)nn1Cc1ccccc1
IC50 [15]: 65.4 µM

Cc1nc(-c2cc(C#N)c3c(c2)CC2(CCCC2)O3)[se]c1C(=O)O
IC50 [7]: 0.00158 µM

COCOc1cccc(-c2c[nH]cc2C#N)c1
inhibition at 100 µM [2]: > 90%

N#Cc1c(Cl)cc(NS(=O)(=O)c2ccccc2OC(F)(F)F)cc1Cl
IC50 [12]: 0.004 µM

O=C1CC(c2ccccc2)Oc2c3c(c(CO)c(O)c21)OCN(c1ccc(F)cc1)C3 (stereo unspecified)
inhibition (INH) [1]: 84.27%

COC(=O)[C@H]1C[C@@H](n2cc(-c3ccccc3)nn2)[C@H](O)C[C@H]1C(=O)OC
IC50 [17]: 0.586 µM

O=C(NC(Cc1ccccc1)C(=O)O)c1ccc2c(c1)C(=O)c1ccccc1C2=O (stereo unspecified)
IC50 [11]: 2.9 µM

CN1C(=O)C(=Cc2ccc(Cl)cc2Cl)C(=O)N(C)C1=O
IC50 [18]: 21000 µM

Cc1nn(-c2ccc(OCCC(C)C)c(C#N)c2)nc1C(=O)O
IC50 [19]: 0.084 µM

O=[N+]([O-])c1cc(C2=NC3=CN=CN(O)C3S2)ccc1Oc1ccccc1F (stereo unspecified)
IC50 [9]: 0.0054 µM

CCOC(=O)c1sc(-c2cc(I)c3c(c2)CCC(C)(C)O3)nc1C
IC50 [7]: 0.0013 µM

O=C(/C=C/c1cc(O)cc(O)c1)c1ccc(O)cc1O
IC50 [20]: 22.5 µM

Cc1nc(-c2ccc(OC(C)C)c(-n3cnnn3)c2)sc1C(=O)O
Activity [21]: 50%

Cc1nc(-c2ccc(OCC(C)(C)C)c(-n3cnnn3)c2)sc1C(=O)O
Activity [21]: 50%
Activity [22]: 40%

Cc1nc(-c2cc(C#N)c3c(c2)CC(C)O3)sc1C(=O)O (stereo unspecified)
IC50 [7]: 0.00184 µM

COc1ccc([C@@H]2C/C(=N\c3ccc([N+](=O)[O-])cc3Cl)C3C(O)=CC(O[C@H]4C[C@@H](OC5O[C@H](C)[C@@H](O)[C@H](O)C5O)[C@H](O)[C@@H](O)[C@@H]4O)=CC3O2)cc1O (stereo partly specified)
IC50 [23]: 0.263 µM

Cc1nc(-c2ccc(OCC(C)C)c(-n3cnnn3)c2)sc1C(=O)O
Activity [21]: 50%
Activity [22]: 40%

O=c1[nH]c(-c2ccc(OCC3CCCCC3)c(-n3cnnn3)c2)no1
IC50 [24]: 0.121 µM

Cc1cc(C)c(C[n+]2cn(CCO)c3ccccc32)c(C)c1
IC50 [17]: 1.25 µM

Oc1ncnc2[nH]ncc12 [ALLOPURINOL]
inhibition (INH) [25]: 33%
inhibition (INH) [26]: 14%

COc1ccc2c(c1)c(CC(=O)O)c(C)n2C(=O)c1ccc(Cl)cc1 [INDOMETHACIN]
IC50 [27]: 86 µM
